Source: patent US20260297081A1, “COMPOUNDS AND METHODS OF TREATING CANCERS” (Cullgen Inc., priority 2023, published 2026)
pIC50: −log10 of the molar value. Where two headings read alike, the source gives them in different places.

Assays:
MCF7 cells = test: Anti-proliferation (viability) of MCF7 cells (Table 7, FIG. 2B); assay type: cell-based; conditions: 3-6 days, 10-point serial dilution, read-out: GI IC50 in MCF-7
CDK4 = CDK4 (Homo sapiens, UniProt P11802+Q16531); test: CDK4 percentage degradation in Calu-1 cells (Table 6); assay type: cell-based; design: Cells that express cyclin D1-3 and CDK4/6 proteins were treated with heterobifunctional compounds; endogenous in cells; host or cells: Calu-1; conditions: 16 hours; for inhibition at 0.04 µM: 40 nM; for inhibition at 0.2 µM: 200 nM
Chain of CDK4 (P11802 2-303 limits assumed): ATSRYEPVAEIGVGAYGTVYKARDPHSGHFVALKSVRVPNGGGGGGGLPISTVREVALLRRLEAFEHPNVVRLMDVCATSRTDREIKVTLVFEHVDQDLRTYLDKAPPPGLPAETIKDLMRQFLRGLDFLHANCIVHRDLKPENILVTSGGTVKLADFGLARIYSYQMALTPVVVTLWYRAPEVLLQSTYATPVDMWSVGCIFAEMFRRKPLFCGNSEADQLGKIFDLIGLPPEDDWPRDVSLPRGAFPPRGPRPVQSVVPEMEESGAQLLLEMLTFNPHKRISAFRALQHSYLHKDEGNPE
Chain of CDK4 (P24385 whole entry partner): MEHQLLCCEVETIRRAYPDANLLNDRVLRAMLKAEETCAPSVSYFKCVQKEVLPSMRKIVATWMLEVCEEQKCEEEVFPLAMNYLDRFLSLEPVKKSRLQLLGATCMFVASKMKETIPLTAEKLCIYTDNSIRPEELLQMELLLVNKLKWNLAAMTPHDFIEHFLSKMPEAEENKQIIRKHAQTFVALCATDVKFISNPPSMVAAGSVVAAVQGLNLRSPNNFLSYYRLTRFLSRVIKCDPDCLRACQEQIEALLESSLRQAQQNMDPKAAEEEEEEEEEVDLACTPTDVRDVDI
Chain of CDK4 (Q16531 2-1140 limits assumed): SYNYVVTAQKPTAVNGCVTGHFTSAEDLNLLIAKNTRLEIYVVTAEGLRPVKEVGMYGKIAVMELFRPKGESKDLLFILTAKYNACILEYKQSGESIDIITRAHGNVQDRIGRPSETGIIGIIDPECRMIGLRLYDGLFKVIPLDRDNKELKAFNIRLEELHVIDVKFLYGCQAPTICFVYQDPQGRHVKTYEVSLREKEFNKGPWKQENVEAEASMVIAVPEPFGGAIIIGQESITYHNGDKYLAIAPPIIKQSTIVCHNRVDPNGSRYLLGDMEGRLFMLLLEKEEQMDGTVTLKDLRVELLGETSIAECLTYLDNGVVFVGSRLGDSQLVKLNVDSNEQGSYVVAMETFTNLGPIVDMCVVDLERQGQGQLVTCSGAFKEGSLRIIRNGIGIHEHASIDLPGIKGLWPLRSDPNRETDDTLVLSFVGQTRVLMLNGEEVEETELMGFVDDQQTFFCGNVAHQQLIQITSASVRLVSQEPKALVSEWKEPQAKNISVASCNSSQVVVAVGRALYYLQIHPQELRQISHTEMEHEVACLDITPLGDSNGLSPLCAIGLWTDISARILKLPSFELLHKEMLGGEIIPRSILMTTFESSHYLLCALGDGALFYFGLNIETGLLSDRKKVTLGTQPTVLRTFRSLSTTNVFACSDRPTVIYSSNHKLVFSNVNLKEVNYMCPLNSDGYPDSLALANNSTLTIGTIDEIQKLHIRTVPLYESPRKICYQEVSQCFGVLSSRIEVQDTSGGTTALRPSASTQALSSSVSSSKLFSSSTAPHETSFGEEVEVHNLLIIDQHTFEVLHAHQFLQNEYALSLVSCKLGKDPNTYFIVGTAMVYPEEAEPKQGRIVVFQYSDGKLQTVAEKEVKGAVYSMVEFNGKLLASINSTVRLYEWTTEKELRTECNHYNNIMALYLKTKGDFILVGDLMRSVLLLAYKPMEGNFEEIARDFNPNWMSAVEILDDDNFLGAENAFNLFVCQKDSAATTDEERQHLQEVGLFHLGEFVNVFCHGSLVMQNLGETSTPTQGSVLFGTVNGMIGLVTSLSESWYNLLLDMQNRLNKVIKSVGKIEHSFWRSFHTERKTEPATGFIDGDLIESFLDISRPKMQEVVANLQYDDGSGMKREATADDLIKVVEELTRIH
In short: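 Percentage degradation of Cyclin D1 and CDK4 derived from densitometry of ECL Western blots on lysates of Calu-1 cells. Treatment was 16 h with compound at either 40 nM or 200 nM.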

Structure (SMILES)	pIC50 (MCF7 cells; Homo sapiens, MCF7, MCF7 cells)	inhibition at 0.04 µM (CDK4) [%]	inhibition at 0.2 µM (CDK4) [%]	pIC50 (MCF7 cells; MCF7 cells)
CNc1ccc(C(=O)Nc2cn(C)c(C3CC3)n2)c(NC2CC(NC(=O)CN3CCN(c4ccc(Nc5ncc6c(C)c(C(C)=O)c(=O)n(C7CCCC7)c6n5)nc4)CC3)C2)n1 (centres unmarked) [CPD-217, 2-((3-(2-(4-(6-((6-acetyl-8-cyclopentyl-5-methyl-7-oxo-7,8-dihydropyrido[2,3-d]pyrimidin-2-yl)amino)pyridin-3-yl)piperazin-1-yl)acetamido)cyclobutyl)amino)-N-(2-cyclopropyl-1-methyl-1H-imidazol-4-yl)-6-(methylamino)nicotinamide]	< 7.00	50 to 80	50 to 80	–
[2H]C([2H])([2H])Nc1ccc(C(=O)Nc2ccc(N(C)C)nn2)c(NC2CN(C(=O)CN3CCC4(CCN(c5ccc(Nc6ncc7c(C)c(C(C)=O)c(=O)n(C8CCCC8)c7n6)nc5)C4)C3)C2)n1 (centres unmarked) [CPD-442, 2-((1-(2-(7-(6-((6-acetyl-8-cyclopentyl-5-methyl-7-oxo-7,8-dihydropyrido[2,3-d]pyrimidin-2-yl)amino)pyridin-3-yl)-2,7-diazaspiro[4.4]nonan-2-yl)acetyl)azetidin-3-yl)amino)-N-(6-(dimethylamino)pyridazin-3-yl)-6-((methyl-d3)amino)nicotinamide]	< 7.00	–	–	–
[2H]C([2H])([2H])Nc1ccc(C(=O)Nc2ccc(N(C)C)nn2)c(NC2CC3(CC(NC(=O)CN4CCC5(CCN(c6ccc(Nc7ncc8c(C)c(C(C)=O)c(=O)n(C9CCCC9)c8n7)nc6)C5)C4)C3)C2)n1 (centres unmarked) [CPD-449, 2-((6-(2-(7-(6-((6-acetyl-8-cyclopentyl-5-methyl-7-oxo-7,8-dihydropyrido[2,3-d]pyrimidin-2-yl)amino)pyridin-3-yl)-2,7-diazaspiro[4.4]nonan-2-yl)acetamido)spiro[3.3]heptan-2-yl)amino)-N-(6-(dimethylamino)pyridazin-3-yl)-6-((methyl-d3)amino)nicotinamide]	> 7.30	–	–	–
[2H]C([2H])([2H])Nc1ccc(C(=O)Nc2ccc(N(C)C)nn2)c(NC2CC(NC(=O)CN3CCC4(CCN(c5ccc(Nc6ncc7c(C)c(C(C)=O)c(=O)n(C8CCCC8)c7n6)nc5)C4)C3)C2)n1 (centres unmarked) [CPD-450, 2-((3-(2-(7-(6-((6-acetyl-8-cyclopentyl-5-methyl-7-oxo-7,8-dihydropyrido[2,3-d]pyrimidin-2-yl)amino)pyridin-3-yl)-2,7-diazaspiro[4.4]nonan-2-yl)acetamido)cyclobutyl)amino)-N-(6-(dimethylamino)pyridazin-3-yl)-6-((methyl-d3)amino)nicotinamide]	> 7.30	–	–	–
CC(=O)c1c(C)c2cnc(Nc3ccc(N4CCC5(CC4)CC5C(=O)NC4CC5(C4)CC(Nc4nc(NC(C)C)ccc4C(=O)Nc4cc(C)n(C)n4)C5)cn3)nc2n(C2CCCC2)c1=O (centres unmarked) [CPD-451, 6-(6-((6-acetyl-8-cyclopentyl-5-methyl-7-oxo-7,8-dihydropyrido[2,3-d]pyrimidin-2-yl)amino)pyridin-3-yl)-N-(6-((3-((1,5-dimethyl-1H-pyrazol-3-yl)carbamoyl)-6-(isopropylamino)pyridin-2-yl)amino)spiro[3.3]heptan-2-yl)-6-azaspiro[2.5]octane-1-carboxamide]	> 7.30	–	–	–
CC(=O)c1c(C)c2cnc(Nc3ccc(N4CCN(CC(=O)NC5CC6(C5)CC(Nc5nc(NC(C)C)ccc5C(=O)Nc5cc(C)n(C7CC7)n5)C6)CC4)cn3)nc2n(C2CCCC2)c1=O (centres unmarked) [CPD-452, 2-((6-(2-(4-(6-((6-acetyl-8-cyclopentyl-5-methyl-7-oxo-7,8-dihydropyrido[2,3-d]pyrimidin-2-yl)amino)pyridin-3-yl)piperazin-1-yl)acetamido)spiro[3.31]heptan-2-yl)amino)-N-(1-cyclopropyl-5-methyl-1H-pyrazol-3-yl)-6-(isopropylamino)nicotinamide]	> 7.30	–	–	–
COc1cccc(NC(=O)c2ccc(NC(C)C)nc2NC2CC3(CC(NC(=O)CN4CCN(c5ccc(Nc6ncc7c(C)c(C(C)=O)c(=O)n(C8CCCC8)c7n6)nc5)CC4)C3)C2)n1 (centres unmarked) [CPD-453, 2-((6-(2-(4-(6-((6-acetyl-8-cyclopentyl-5-methyl-7-oxo-7,8-dihydropyrido[2,3-d]pyrimidin-2-yl)amino)pyridin-3-yl)piperazin-1-yl)acetamido)spiro[3.3]heptan-2-yl)amino)-6-(isopropylamino)-N-(6-methoxypyridin-2-yl)nicotinamide]	7.00 to 7.30	–	–	–
CC(=O)c1c(C)c2cnc(Nc3ccc(N4CCN(C5CCN(C(=O)C6(O)CCC(Nc7nc(NC(C)C)ccc7C(=O)Nc7ccc(N(C)C)nn7)CC6)C5)CC4)cn3)nc2n(C2CCCC2)c1=O (stereo not drawn) [CPD-575, 2-((trans-4-(3-(4-(6-((6-acetyl-8-cyclopentyl-5-methyl-7-oxo-7,8-dihydropyrido[2,3-d]pyrimidin-2-yl)amino)pyridin-3-yl)piperazin-1-yl)pyrrolidine-1-carbonyl)-4-hydroxycyclohexyl)amino)-N-(6-(dimethylamino)pyridazin-3-yl)-6-(isopropylamino)nicotinamide]	–	–	–	< 7.00

More lines, now with the values ahead:

pIC50 (MCF7 cells; Homo sapiens, MCF7, MCF7 cells)	inhibition at 0.04 µM (CDK4) [%]	inhibition at 0.2 µM (CDK4) [%]	pIC50 (MCF7 cells; MCF7 cells)	Structure (SMILES)
> 7.30	50 to 80	50 to 80	–	CNc1ccc(C(=O)Nc2ccc(N(C)C)nn2)c(NC2CC(Cn3cc(CN4CCN(c5ccc(Nc6ncc7c(C)c(C(C)=O)c(=O)n(C8CCCC8)c7n6)nc5)CC4)nn3)C2)n1 (centres unmarked) [CPD-202, 2-((3-((4-((4-(6-((6-acetyl-8-cyclopentyl-5-methyl-7-oxo-7,8-dihydropyrido[2,3-d]pyrimidin-2-yl)amino)pyridin-3-yl)piperazin-1-yl)methyl)-1H-1,2,3-triazol-1-yl)methyl)cyclobutyl)amino)-N-(6-(dimethylamino)pyridazin-3-yl)-6-(methylamino)nicotinamide]
> 7.30	50 to 80	50 to 80	–	CNc1ccc(C(=O)Nc2ccc(N(C)C)nn2)c(NC2CCN(C(=O)CCN3CCN(c4ccc(Nc5ncc6c(C)c(C(C)=O)c(=O)n(C7CCCC7)c6n5)nc4)CC3)CC2)n1 [CPD-203, 2-((1-(3-(4-(6-((6-acetyl-8-cyclopentyl-5-methyl-7-oxo-7,8-dihydropyrido[2,3-d]pyrimidin-2-yl)amino)pyridin-3-yl)piperazin-1-yl)propanoyl)piperidin-4-yl)amino)-N-(6-(dimethylamino)pyridazin-3-yl)-6-(methylamino)nicotinamide]
> 7.30	50 to 80	50 to 80	–	CC(=O)c1c(C)c2cnc(Nc3ccc(N4CCN(CC(=O)NCC5CC(Nc6nc(NC(C)C)ccc6C(=O)Nc6cc(C)n(C)n6)C5)CC4)cn3)nc2n(C2CCCC2)c1=O (centres unmarked) [CPD-205, 2-((3-((2-(4-(6-((6-acetyl-8-cyclopentyl-5-methyl-7-oxo-7,8-dihydropyrido[2,3-d]pyrimidin-2-yl)amino)pyridin-3-yl)piperazin-1-yl)acetamido)methyl)cyclobutyl)amino)-N-(1,5-dimethyl-1H-pyrazol-3-yl)-6-(isopropylamino)nicotinamide]
> 7.30	–	–	–	[2H]C([2H])([2H])Nc1ccc(C(=O)Nc2ccc(N(C)C)nn2)c(NC2CCN(C(=O)CN3CCC4(CCN(c5ccc(Nc6ncc7c(C)c(C(C)=O)c(=O)n(C8CCCC8)c7n6)nc5)C4)C3)CC2)n1 (centres unmarked) [CPD-441, 2-((1-(2-(7-(6-((6-acetyl-8-cyclopentyl-5-methyl-7-oxo-7,8-dihydropyrido[2,3-d]pyrimidin-2-yl)amino)pyridin-3-yl)-2,7-diazaspiro[4.4]nonan-2-yl)acetyl)piperidin-4-yl)amino)-N-(6-(dimethylamino)pyridazin-3-yl)-6-((methyl-d3)amino)nicotinamide]
> 7.30	–	–	–	[2H]C([2H])([2H])Nc1ccc(C(=O)Nc2cn(C)c(C3CC3)n2)c(NC2CC3(C2)CN(C(=O)CN2CCC4(CCN(c5ccc(Nc6ncc7c(C)c(C(C)=O)c(=O)n(C8CCCC8)c7n6)nc5)C4)C2)C3)n1 (centres unmarked) [CPD-443, 2-((2-(2-(7-(6-((6-acetyl-8-cyclopentyl-5-methyl-7-oxo-7,8-dihydropyrido[2,3-d]pyrimidin-2-yl)amino)pyridin-3-yl)-2,7-diazaspiro[4.4]nonan-2-yl)acetyl)-2-azaspiro[3.3]heptan-6-yl)amino)-N-(2-cyclopropyl-1-methyl-1H-imidazol-4-yl)-6-((methyl-d3)amino)nicotinamide]
> 7.30	–	–	–	CC(=O)c1c(C)c2cnc(Nc3ccc(N4CCC5(CCN(CC(=O)N6CC7(CC(Nc8nc(NC(C)C)ccc8C(=O)Nc8cn(C)c(C9CC9)n8)C7)C6)C5)C4)cn3)nc2n(C2CCCC2)c1=O (centres unmarked) [CPD-444, 2-((2-(2-(7-(6-((6-acetyl-8-cyclopentyl-5-methyl-7-oxo-7,8-dihydropyrido[2,3-d]pyrimidin-2-yl)amino)pyridin-3-yl)-2,7-diazaspiro[4.4]nonan-2-yl)acetyl)-2-azaspiro[3.3]heptan-6-yl)amino)-N-(2-cyclopropyl-1-methyl-1H-imidazol-4-yl)-6-(isopropylamino)nicotinamide]
> 7.30	–	–	–	[2H]C([2H])([2H])Nc1ccc(C(=O)Nc2ccc(N(C)C)nn2)c(NC2CC(CNC(=O)CN3CCC4(CCN(c5ccc(Nc6ncc7c(C)c(C(C)=O)c(=O)n(C8CCCC8)c7n6)nc5)C4)C3)C2)n1 (centres unmarked) [CPD-445, 2-((3-((2-(7-(6-((6-acetyl-8-cyclopentyl-5-methyl-7-oxo-7,8-dihydropyrido[2,3-d]pyrimidin-2-yl)amino)pyridin-3-yl)-2,7-diazaspiro[4.4]nonan-2-yl)acetamido)methyl)cyclobutyl)amino)-N-(6-(dimethylamino)pyridazin-3-yl)-6-((methyl-d3)amino)nicotinamide]
